In brackets after ≈: the same amount, converted by molar mass.

One assay relates to Enterococcus faecium. The following applies: cited from earlier work.
Another assay deals with E. faecalis. The following applies: cited from earlier work.
For assay [1], the system named is three strains of Staphylococcus aureus. The following applies: cited from earlier work.
Another assay relates to Streptococcus epidermis. The following applies: cited from earlier work.
The test system of the next assay is Streptococcus agalactiae. Put plainly: MIC, broth microdilution. The class given is cell-based. The following applies: HPLC fractions, serial two-fold dilutions approximately 128 μg/ml to approximately 2 μg/ml. An excerpt: The eight bacterial strains listed in Table 1 are used in the antibacterial activity assays. Streptococcus agalactiae and S. uberis (gifts from D. Donovan, ARS, USDA, Beltsville, Md.), Lactobacillus fermentum laboratory strain number 0315-1 (Bischoff, et al., Biotechnology and Bioengineering 103:117-122 (2009)), Enterococcus faecalis (ATCC Accession Number 29212), Bacillus subtilis MW10 (Bacillus Genetic Stock Center Accession Number 1A751), Staphylococcus aureus (ATCC Accession Number 29213), Escherichia coli (ATCC Accession Number 25922), and Pseudomonas aeruginosa (ATCC Accession Number 27853) are obtained from the indicated source. S. uberis, S. agalactiae, S. aureus, E. coli, and P. aeruginosa are cultured in tryptic soy broth (TSB) at 37° C. TSB contains the following: peptone from casein 17.0 g/L; peptone from soymeal 3.0 g/L; D(+)glucose 2.5 g/L; sodium chloride 5.0 g/L; and di-potassium hydrogen phosphate 2.5 g/L. E. faecalis are cultured in Bacto Brain Heart Infusion broth (BHI) (Becton Dickenson, Franklin Lakes, N.J.) at 37° C. L. fermentum are cultured in MRS broth at 37° C. MRS broth contains the following: peptone from casein 10.0 g/L; meat extract 8.0 g/L; yeast extract 4.0 g/L; D(+)-glucose 20.0 g/L; di-potassium hydrogen phosphate 2.0 g/L; Tween® 80 1.0 g/L; di-ammonium hydrogen citrate 2.0 g/L; sodium acetate 5.0 g/L; magnesium sulfate 0.2 g/L; and manganese sulfate 0.04 g/L. […]
Fractions 5-14 that were obtained from the HPLC fractionation (above) are assayed for antibacterial activity against S. agalactiae by the broth dilution method with serial two-fold dilutions of each component ranging from approximately 128 μg/ml to approximately 2 μg/ml. Fraction 12, containing mannitol-liamocin B1 had the lowest minimum inhibitory concentration (i.e. highest antibacterial activity) of the fractions.
On the technique in general: Broth dilution looks for growth in wells or tubes with falling amounts of substance.

In the next assay the test system is S. agalactiae. Put plainly: Disc diffusion assay of HPLC fractions. The following applies: 5 mg/ml, 10 μl per 6 mm disc, 37° C. overnight. The format is cell-based, Streptococcus agalactiae. As to the method: Antibacterial activity for each fraction of the HPLC is measured qualitatively by disc diffusion assay. S. agalactiae at a density of 0.5 McFarland units are diluted 1:100 in PBS, and 20 μl are evenly spread on TSB agar media. Paper discs (6 mm diameter) are placed on surface. HPLC fractionated oils are dissolved to a concentration of 5 mg/ml in solvent (1:1 dimethylsulfoxide:2-butanone), and samples (10 μl) are applied to each disc. Plates are incubated at 37° C. overnight, and scored for a growth inhibition zone surrounding the disc, which indicates antibacterial activity. 5 mg/ml of purified oil is used as positive control, and acetonitrile solvent for HPLC is used as negative control.
Background: Agar diffusion results depend on both activity and mobility in agar.

The MIC is the least concentration at which growth counts as inhibited. With `CCCCC[C@@H](O)C[C@@H](O)CC(=O)O[C@H](CCCCC)C[C@@H](O)CC(=O)O[C@H](CCCCC)C[C@@H](O)CC(=O)O` [Exophilin A], the MIC in the assay on Enterococcus faecium is 12.5 µg/mL (≈ 21.7 µM); in the assay on E. faecalis, 25 µg/mL (≈ 43.3 µM); in assay [1] it was 50 µg/mL (≈ 86.7 µM); in the assay with Streptococcus epidermis, above 100 µg/mL. Turning to mannitol-liamocin A1 [Fraction 7], in the assay with Streptococcus agalactiae (listed as 7), the “Minimum Inhibitory Concentration” value is above 128 µg/mL. mannitol-liamocin A1 [Fraction 8]: in the assay with Streptococcus agalactiae (listed as 8), the “Minimum Inhibitory Concentration” value amounted to 64 µg/mL. In the assay with S. agalactiae, the “growth inhibition zone surrounding the disc (antibacterial activity, qualitative)” value is on record as “exhibit bactericidal activity”. As to mannitol-liamocin A2 [Fraction 9], in the assay on Streptococcus agalactiae (listed as 9), the “Minimum Inhibitory Concentration” value came to 128 µg/mL. Also, in the assay on S. agalactiae, the “growth inhibition zone surrounding the disc (antibacterial activity, qualitative)” value was “exhibit bactericidal activity”.

For the compound mannitol-liamocin A2 [Fraction 10], the “Minimum Inhibitory Concentration” value in the assay on Streptococcus agalactiae (listed as 10) worked out at 64 µg/mL.

In the case of mannitol-liamocin B1 [Fraction 11], the “Minimum Inhibitory Concentration” value with Streptococcus agalactiae (listed as 11) was found to be 64 µg/mL. Further, the “growth inhibition zone surrounding the disc (antibacterial activity, qualitative)” value in the assay on S. agalactiae is “exhibit bactericidal activity”.

Regarding mannitol-liamocin B1 [Fraction 12], the “Minimum Inhibitory Concentration” value with Streptococcus agalactiae (listed as 12) was found to be 16 µg/mL. For mannitol-liamocin B2 [Fraction 13], the “Minimum Inhibitory Concentration” value with Streptococcus agalactiae worked out at 128 µg/mL. Further, the “growth inhibition zone surrounding the disc (antibacterial activity, qualitative)” value in the assay with S. agalactiae is listed as “exhibit bactericidal activity”.

These data come from patent US10544085B2, “Oils having antibacterial activity” (The United States of America, as Represented by the …, priority 2014, dated 2020).
